Source: patent US20080206356A1, “Pharmaceutical Compositions for the Treatment of Neurodegenerative Disorders” (UNIVERSIDAD DE BARCELONA, priority 2005, published 2008)

Key:
[1] = cited from earlier work
[2] = target: T1, GSK3-β (Rattus norvegicus, UniProt P18266); assay: Ser-9 phosphorylation of GSK3-β in brain of STZ-diabetic rats intraperitoneally injected with tungstate; format: in vivo; details: tungstate 50 or 75 mg/kg intraperitoneally, FIG. 3B
T1 construct: Western blot analysis of Ser-9 phosphorylation of GSK3 in rat brain extracts; from tissue; host or cells: rat brain (Wistar rats: healthy or STZ-diabetic)
Experimental: (§1) In FIG. 3 the effect of tungstate (W) on the phosphorylation of tau from brains obtained from STZ-diabetic rats is shown. A) Western blot analysis of Ser-9 phosphorylation of GSK3 in rat brain extracts from control healthy rats intraperitoneally injected with saline (Ctrl) or tungstate (W) (50 mg/kg). […] B) as in A), STZ-diabetic rats intraperitoneally injected with 50 or 75 mg/kg of tungstate. C) Western blot analysis of the phosphorylation of tau at the site recognized by the tau-1 antibody in brain extracts from control healthy rats intraperitoneally injected with saline (Ctrl) or tungstate (W) (50 mg/kg). […] D) as in C), STZ-diabetic rats intraperitoneally injected with 50 or 75 mg/kg of tungstate. The data correspond to mean values and the error bars represent the standard deviation of three to five independent experiments.
(§2) The analysis of the degree of the phosphorylation of tau and GSK3 was performed by Western blot with the antibodies mentioned above. […] The protein concentration was determined using the BCA protein assay (Pierce, Rockford, Ill.). […]

[3] = system: tau; assay: tau phosphorylation (tau-1 site) in brain of healthy rats intraperitoneally injected with tungstate; format: in vivo, rat; details: tungstate 50 mg/kg intraperitoneally vs saline, FIG. 3C
Experimental: as §1, §2

[4] = system: tau; assay: tau phosphorylation in SH-SY5Y neuroblastoma cells (Western blot, tau-1 and AT-180 antibodies); format: cell-based, Human
Experimental: (§3) In FIG. 1 the effect of tungstate (W) on GSK3-β and tau phosphorylation on SH-SY5Y neuroblastoma cells is shown. The data correspond to the mean values and the error bars represent the standard deviation of three independent experiments. A) SH-SY5Y neuroblastoma cells were incubated for 10 minutes in the presence (+) or absence (−) of 1 mM sodium tungstate and their protein extracts were then probed by Western blot with an antibody that recognizes GSK3-β phosphorylated at Ser-9 and total GSK3-β. GSK3-β phosphorylation on Ser-9 causes its inactivation (D. A: Cross et al., Nature, vol. 378, pp. 785-789). […] B) SH-SY5Y cells were incubated with increasing concentrations of tungstate and the degree of tau phosphorylation was determined by Western blot with the tau-1 antibody, which recognizes tau when the serines 198, 199 or 202 are in unphosphorylated form. […] C) SH-SY5Y cells were incubated for 10 minutes in the presence (+) or absence (−) of 1 mM sodium tungstate (W) and the degree of tau phosphorylation was determined by Western blot with the AT180 antibody, which recognizes tau when threonine 231 is in phosphorylated form. […] The total amount of tau protein was determined using the 7.51 antibody.
(§4) The analysis of the degree of the phosphorylation of tau and GSK3 was performed by Western blot with the antibodies mentioned above. […]

[5] = target: T2, GSK3-β (Homo sapiens, UniProt P49841); assay: Ser-9 phosphorylation of GSK3-β in SH-SY5Y neuroblastoma cells (Western blot); format: cell-based; details: 1 mM sodium tungstate, 10 minutes, vs vehicle, FIG. 1A
T2 construct: endogenous in cells; host or cells: SH-SY5Y human neuroblastoma cells (ECACC 94030304)
Experimental: as §3, §4

[6] = system: tau; assay: phosphorylation of tau in brains of healthy Wistar rats intracranially injected with tungstate; format: in vivo, rat; details: intracranial 0.1 mM tungstate vs saline, FIG. 2A
Experimental: (§5) In FIG. 2 the effect of tungstate (W) on the phosphorylation of tau in brains from healthy and insulin-resistant rats is shown. A) Western blot analysis of the phosphorylation of GSK3 (left) and tau (right) from brain extracts of healthy rats intracranially injected with saline (−) or 0.1 mM tungstate (+). Phosphorylation was measured with antibodies against Ser-9 phosphorylated GSK3-β (pS9), and tau phosphorylated at threonine 231 (AT180) or unphosphorylated at serines 198, 199 and 202 (tau-1). The total amount of GSK3 and tau was determined through the interaction with antibodies raised against GSK3 and against tau (7.51), respectively. […] Phosphorylation was measured using the antibody that reacts with Ser-9 phosphorylated GSK3-β (pS9-GSK3-β) or with the tau-1 and AT180 antibodies. The total amounts of GSK3 and tau were determined as in A. C) Insulin-resistant rats were injected intracranially with saline (−) or 0.1 mM tungstate (+), their brains were then isolated and homogenised, and Western blots of the brain proteins were performed with the tau-1, and AT180 antibodies. The total amount of tau protein was determined using the 7.51 antibody. […]
as §2

[7] = target: T3, GSK3 (Rattus norvegicus, UniProt P18266); assay: Ser-9 phosphorylation of GSK3 in brain of healthy rats intraperitoneally injected with tungstate; format: in vivo; details: tungstate 50 mg/kg intraperitoneally vs saline, FIG. 3A
T3 construct: Western blot analysis of Ser-9 phosphorylation of GSK3 in rat brain extracts; from tissue; host or cells: rat brain (Wistar rats: healthy or STZ-diabetic)
Experimental: as §1, §2

[8] = target: T3, GSK3; assay: phosphorylation of GSK3 in brains of healthy Wistar rats intracranially injected with tungstate; format: in vivo; details: intracranial 0.1 mM tungstate vs saline, FIG. 2A
Experimental: as §5, §2

[9] = system: tau; assay: tau phosphorylation (tau-1 site) in brain of STZ-diabetic rats intraperitoneally injected with tungstate; format: in vivo, rat; details: tungstate 50 or 75 mg/kg intraperitoneally, FIG. 3D
Experimental: as §1, §2

[10] = system: tau; assay: phosphorylation of tau in brains of insulin-resistant (high fat diet) rats injected intraventricularly with tungstate; format: in vivo, rat; details: 5 μl of 110 nM sodium tungstate intraventricularly (FIG. 2 legend: 0.1 mM), 24 hours, cortex, FIG. 2C, dihydrate
Experimental: In FIG. 2 the effect of tungstate (W) on the phosphorylation of tau in brains from healthy and insulin-resistant rats is shown. A) Western blot analysis of the phosphorylation of GSK3 (left) and tau (right) from brain extracts of healthy rats intracranially injected with saline (−) or 0.1 mM tungstate (+). Phosphorylation was measured with antibodies against Ser-9 phosphorylated GSK3-β (pS9), and tau phosphorylated at threonine 231 (AT180) or unphosphorylated at serines 198, 199 and 202 (tau-1). The total amount of GSK3 and tau was determined through the interaction with antibodies raised against GSK3 and against tau (7.51), respectively. B) Western blot analysis of the phosphorylation in brain of GSK3-β (left) and tau (right) in control (Ctrl) and insulin-resistant (IR) rats. Phosphorylation was measured using the antibody that reacts with Ser-9 phosphorylated GSK3-β (pS9-GSK3-β) or with the tau-1 and AT180 antibodies. The total amounts of GSK3 and tau were determined as in A. C) Insulin-resistant rats were injected intracranially with saline (−) or 0.1 mM tungstate (+), their brains were then isolated and homogenised, and Western blots of the brain proteins were performed with the tau-1, and AT180 antibodies. The total amount of tau protein was determined using the 7.51 antibody. A decrease in the interaction with AT180 and an increase for that of tau-1 were observed
The analysis of the degree of the phosphorylation of tau and GSK3 was performed by Western blot with the antibodies mentioned above. Cells were homogenized at 4° C. in 50 mM 4-(2-hydroxyethyl)piperazine-1-ethanesulfonic acid (HEPES), pH 7.4, 10 mM ethylenediaminetetraacetic acid (EDTA), 0.1% 4-(1,1,3,3-tetramethylbutyl)phenyl-polyethylene glycol (triton X-100), 20 mM NaF, 0.1 mM sodium orthovanadate, 1 mM phenylmethanesulphonylfluoride, 10 μg/ml Isovaleryl-Val-Val-4-amino-3-hydroxy-6-methylheptanoyl-Ala-4-amino-3-hydroxy-6-methylheptanoic Acid (Pepstatin A); and 10 μg/ml aprotinin. The cell lysates were centrifuged at 10,000 g for 30 min at 4° C. and then heated at 100° C. for 5 min in electrophoresis sample buffer. The protein concentration was determined using the BCA protein assay (Pierce, Rockford, Ill.). Proteins were fractionated by sodium dodecylsulfate-polyacrylamide gel electrophoresis (SDS-PAGE) on 10% gels and transferred to nitrocellulose membranes (Schleicher & Schuell Bioscience, Dassel, Germany). After blocking non-specific protein binding to the membranes with 0.05% polyethylene glycol sorbitan monolaurate (Tween 20) and 5% non-fat dry milk in phosphate buffered saline (PBS), the membranes were incubated overnight with the primary antibodies in blocking buffer at 4° C. […]

T3 sequence (P18266 whole entry): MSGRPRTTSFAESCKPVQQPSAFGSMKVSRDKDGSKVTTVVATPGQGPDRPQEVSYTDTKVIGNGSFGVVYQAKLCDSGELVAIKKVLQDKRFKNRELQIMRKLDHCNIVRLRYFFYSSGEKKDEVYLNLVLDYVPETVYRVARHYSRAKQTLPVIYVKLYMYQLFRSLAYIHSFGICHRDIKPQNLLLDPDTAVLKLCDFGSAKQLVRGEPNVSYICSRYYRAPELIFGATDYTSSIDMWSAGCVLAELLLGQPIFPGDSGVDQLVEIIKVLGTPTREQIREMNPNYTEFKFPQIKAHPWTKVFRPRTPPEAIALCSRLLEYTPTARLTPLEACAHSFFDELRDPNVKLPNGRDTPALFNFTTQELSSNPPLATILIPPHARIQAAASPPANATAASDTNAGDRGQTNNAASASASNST
T2 sequence (P49841 whole entry): as the sequence (P18266 whole entry) above, with M240V, P390T, A392T, T400A, A402T counted along it
T1 sequence (P18266 whole entry): as the sequence (P18266 whole entry) above

O.O.[Na+].[Na+].[O]=[W](=[O])([O-])[O-] [sodium tungstate, Sodium tungstate dihydrate]
solubility in water [1]: easily dissolved | Ser-9 phosphorylation of GSK3-β in brain (pS9-GSK3 / GSK3-β) [2]: increased | tau phosphorylation at the site recognized by the tau-1 antibody in brain (tau-1 / 7.51) [3]: no changes | phosphorylation of the tau epitope recognized by AT-180 (threonine 231; ratio AT180 / 7.51) ([4]; 1 mM sodium tungstate, 10 minutes, FIG. 1C): decrease | immunoreactivity with the tau-1 antibody (tau unphosphorylated at serines 198, 199 or 202; ratio tau1 / 7.51) ([4]; increasing concentrations of tungstate, FIG. 1B): significant increase | Ser-9 phosphorylation of GSK3-β (ratio GSK3-β-pS9 / total GSK3-β) [5]: significantly increased | phosphorylation of tau (AT180, tau-1) in brain [6]: did not observe significant changes | phosphorylation of GSK3 at Ser-9 in brain (pS9-GSK3 / GSK3-β) [7]: no changes | phosphorylation of GSK3 (Ser-9) in brain [8]: did not observe significant changes | tau phosphorylation at the site recognized by the tau-1 antibody in brain (tau-1 / 7.51) [9]: decreased | amount of tau protein recognized by the tau-1 antibody in brain ([10]; listed as Tungstate): increased | phosphorylation of tau at the epitope recognized by the AT180 antibody in brain ([10]; listed as Tungstate): decreased | amount of tau protein recognized by the tau-1 antibody in brain ([10]; listed as tungstate): increase | phosphorylation of tau at the epitope recognized by the AT180 antibody in brain ([10]; listed as tungstate): decrease
